{"source": "patent US20230346769A1", "about": "“USE OF SIMPLE ACYCLIC POLYAMINES FOR THE TREATMENT OF DISEASES CAUSED BY PARASITES OF THE GENUS LEISHMANIA” (Universidad De Granada, priority 2020, published 2023)", "note": "Entries after “also recorded” stand apart in the source; their conditions may differ."}
{"tested_on": "intracellular forms of L.infantum in J774.2 macrophages", "assay": "Infection rate and parasite growth in infected macrophage cultures", "type": "cell-based, Leishmania infantum", "conditions": "compound at IC25, 10 days", "experimental": "Methodology: Macrophages of the J774.2 line preserved in the laboratory of the present inventors by cryopreservation at -80° C. and successive runs in MEM+Glutamine + 20% SBFI medium were used, which were deposited in a […] tube and centrifuged at 100 g for 5 minutes. The supernatant was discarded and the cells were resuspended in medium corresponding to a final concentration of 1×10^6 cells/ml. Subsequently, 10 μl of the cell suspension was deposited into each well of a 24-well culture plate each with a 10 mm diameter round slide. A final volume of 500 μl was completed with the culture medium and incubated for 24 h at 37° C. in humid atmosphere with 5% CO2. […] The non-phagocytic parasites and products were removed by washing and the infected cultures were maintained for 10 days in fresh medium added every 48 hours. The activity of the compounds was determined by the percentage of infected cells and the number of amastigotes per infected cell. Finally, the cultures were fixed and stained with methanol and Giemsa."}
{"smiles": "CNCCNCc1cccnc1", "note": "[Compound 2, 1-{3-pyridyl)-2,5-diazahexane]", "Number of amastigotes per infected cell": "lowest values over time", "Percentage of infection (infection rate)": "lowest values over time"}
{"smiles": "CN(C)CCNCc1cccnc1", "note": "[Compound 5, 1-{3-pyridyl}-5-methyl-2,5-diazahexane]", "Percentage of infection (infection rate)": "lower infection rates than compound 4 until 8 days had elapsed"}
{"smiles": "CN(C)CCNCc1ccccn1", "note": "[Compound 4, 1-(2-pyridyl)-5-methyl-2,5-diazahexane]", "Number of amastigotes per infected cell": "better (lower) than those obtained with compound 5", "Percentage of infection (infection rate)": "lower infection rate on day 10"}
{"tested_on": "L.braziliensis promastigotes", "assay": "Alteration of production and excretion of metabolites (1H NMR)", "type": "cell-based, Leishmania braziliensis", "conditions": "compound at IC25, 72 h", "experimental": "(§1) Methodology: Promastigotes from the three species studied were used for this study. They were left to grow in a culture flask and subsequently transferred to a 25 ml capacity conical bottom flask (steriling) so that there were 5×10^4 parasites/ml in each one. The amount of compound needed to reach IC25 of each product was added and completed with fresh culture medium to reach a final volume of 3 ml and incubated at 28° C. for 72 h. After that time, the flasks were centrifuged at 400 g for 10 minutes, and 2 ml of supernatant was transferred to Eppendorf® tubes. Next, they were analysed using proton nuclear resonance and the spectra were analysed with the Mestre Nova® software to obtain the metabolite production and excretion graphs. From these graphs, it can be inferred which enzyme has seen its activity altered by action of the compounds, depending on the increase or decrease of the metabolite produced by it.\n(§2) Both the decrease and increase in the metabolites analysed can be positive effects, indicating a malfunctioning of the metabolic pathway."}
{"smiles": "CNCCNCc1cccnc1", "note": "[Compound 2, 1-{3-pyridyl)-2,5-diazahexane]", "Production and excretion of metabolites (metabolism, other metabolites analysed)": "practically does not alter the other metabolites analysed"}
{"smiles": "CN(C)CCNCc1ccccn1", "note": "[Compound 4, 1-(2-pyridyl)-5-methyl-2,5-diazahexane]", "Production and excretion of metabolites (metabolism, other metabolites analysed)": "decrease of the remaining metabolites analysed"}
{"tested_on": "L.braziliensis promastigotes", "assay": "Alteration of production and excretion of metabolites (1H NMR)", "type": "cell-based, Leishmania braziliensis", "conditions": "compound at IC25, 72 h, versus control", "experimental": "as §1, §2"}
{"smiles": "CNCCNCc1cccnc1", "note": "[Compound 2, 1-{3-pyridyl)-2,5-diazahexane]", "Succinate production": "a certain increase of succinate"}
{"smiles": "CN(C)CCNCc1ccccn1", "note": "[Compound 4, 1-(2-pyridyl)-5-methyl-2,5-diazahexane]", "Succinate production": "increase in succinate production"}
{"tested_on": "FeSOD of promastigote forms of L.infantum", "assay": "In vitro inhibition of FeSOD (NBT reduction)", "type": "biochemical, Leishmania infantum", "conditions": "not given", "experimental": "(§3) Methodology: Compounds that were selected from the leishmanicidal activity shown in previous experiments were evaluated as inhibitors of FeSOD enzyme activity, which is unique to the kinetoplastid parasites to which Leishmania belongs. Being exclusive, it is absent in the vertebrate host, since these usually have an analogous form of that enzyme, but complexed to a copper or zinc atom (Cu/ZnSOD). For this reason, this enzyme is a therapeutic target for the design of new drugs, since the capture of the metal ion by complexing mechanisms can inactivate the enzyme and compromise the survival of the parasite with the appearance of free radicals.\nInhibition caused by the novel compounds on FeSOD/ Cu-Zn SOD activity was quantified on the spectrophotometer at 560 nm according to the technique described by [W F. Beyer. I. Fridovich. Anal Biochem. 1987. 161: 559-66] based on the determination of the reduction of NBT (nitro blue tetrazolium) by superoxide ions and which the group of the present inventors has developed for the assay in trypanosomatides, being a routine technique in the laboratory of said group [F. Luque. et. al. Comp. Biochem. Physiol. C Toxicol. Pharmacol. 2000. 126: 39-44; M. Sanchez-Moreno. Med. Chem. 2011. 54. 970-9; I. Ramírez-Macías. et. al. J. Antimicrob. Chemother 2011. 66(4): […]].\nBriefly, the cultured parasites as described in Example 1 underwent centrifugation, the pellet was resuspended (0.5 - 0.6 g/ml) in 3 ml of STE buffer ([…]. pH 7.8) and underwent 3 cycles of sonication from 30 s at 60 V. Then, it was centrifuged at 1500 g for 10 min at 4° C. and the pellet was washed 3 times with ice-cooled STE buffer. This fraction was centrifuged (2500 g for 10 min at 4° C.) and the supernatant was subsequently collected. Protein concentrations were determined by means of the Bradford method (Sigma-Aldrich) using bovine serum albumin as standard. […] A first measurement of the absorbance at 560 nm was made on a spectrophotometer and, after 10 minutes under light and under stirring conditions, the absorbance was re-determined. […]"}
{"smiles": "CNCCNCc1cccnc1", "note": "[Compound 2, 1-{3-pyridyl)-2,5-diazahexane]", "Concentration for 50% inhibition (IC50) of FeSOD of L.infantum": "less than that necessary to achieve the same percentage of inhibition of the CuZnSOD enzyme of human erythrocytes; also recorded: showed ability to inhibit FeSOD; also recorded: low IC50 value"}
{"smiles": "CN(C)CCNCc1cccnc1", "note": "[Compound 5, 1-{3-pyridyl}-5-methyl-2,5-diazahexane]", "Concentration for 50% inhibition (IC50) of FeSOD of L.infantum": "less than that necessary to achieve the same percentage of inhibition of the CuZnSOD enzyme of human erythrocytes; also recorded: showed ability to inhibit FeSOD"}
{"smiles": "CN(C)CCNCc1ccccn1", "note": "[Compound 4, 1-(2-pyridyl)-5-methyl-2,5-diazahexane]", "Concentration for 50% inhibition (IC50) of FeSOD of L.infantum": "less than that necessary to achieve the same percentage of inhibition of the CuZnSOD enzyme of human erythrocytes; also recorded: showed ability to inhibit FeSOD"}
{"tested_on": "not listed separately", "assay": "Potentiometric titrations, protonation constants", "type": "physicochemical", "conditions": "0.15 M NaCl, 298.1 K", "experimental": "FEM measurements. Potentiometric titrations were conducted at 298.1 ± 0.1 K using 0.15 M NaCl as the support electrolyte. The experimental procedure (burette, potentiometer, cell, stirrer, microcomputer, etc.) has been fully described elsewhere (E. García-Spain, M.-J. Ballester, F. Lloret, J.M. Moratal, J. Faus and A. Bianchi, J. Chem. Soc. Dalton Trans. 1988, 101-104). The FEM data acquisition was performed with the PASAT software (M. Fontanelli and M. Micheloni, Program for the automatic control of the microburette and the acquisition of the electromotor force readings (PASAT). Minutes of the 1st Spanish-Italian Congress of Thermodynamics of Metal Complexes, Peñíscola, Castellón, Spain, 1990). The reference electrode was an Ag/AgCl electrode in saturated KCI solution. The glass electrode was calibrated as a hydrogen ion concentration probe by titration of previously standardised amounts of HCl with CO2 free NaOH solutions and the equivalent point determined by Gran’s method ((a) G. Gran, Analyst 1952, 77, 661 -671; (b) F.J. Rossotti and H. Rossotti, J. Chem. Educ. 1965, 42, 375-378) providing the standard potential, Eº’, and the ionic product of water (pKw = 13.73 (1)).\nHyperquad software was used to calculate protonation and stability constants (P. Gans, A. Sabatini and A. Vacca, Talanta 1996, 43, 1739-1753). The pH range investigated was 2.5-11.0 and the concentration of the ligands varied from 1×10^-3 to 5×10^-3 M. The different titration curves for each system (at least two) were treated as a single set or as separate curves without significant variations in the values of the stability constants. Finally, the data sets were fused and treated simultaneously to give the final protonation constants (Table 1). For compounds 1, 7 and 9, two protonation constants have been detected in the pH range studied with values ranging from 5.51 to 9.68 logarithmic units. For the remaining compounds, three protonation constants have been measured with values ranging from 10.08 to 2.25 logarithmic units. All compounds have charge +1 at the physiological pH value of 7.4."}
{"smiles": "CNCCNCc1cccnc1", "note": "[Compound 2, 1-{3-pyridyl)-2,5-diazahexane]", "Log β": "18.29(3)", "Logarithm of the protonation constant H2L+H ⇌ H3L": "2.95(2)", "Logarithm of the protonation constant H+L ⇌ HL": "9.653(5)", "Logarithm of the protonation constant HL+H ⇌ H2L": "5.687(5)"}
{"smiles": "CN(C)CCNCc1cccnc1", "note": "[Compound 5, 1-{3-pyridyl}-5-methyl-2,5-diazahexane]", "Log β": "17.98(1)", "Logarithm of the protonation constant H2L+H ⇌ H3L": "3.16(1)", "Logarithm of the protonation constant H+L ⇌ HL": "9.18(1)", "Logarithm of the protonation constant HL+H ⇌ H2L": "5.63(1)"}
{"smiles": "CNCCNCc1ccnc2ccccc12", "note": "[Compound 10]", "Log β": "17.99(1)", "Logarithm of the protonation constant H2L+H ⇌ H3L": "3.183(8)", "Logarithm of the protonation constant H+L ⇌ HL": "9.512(6)", "Logarithm of the protonation constant HL+H ⇌ H2L": "5.297(7)"}
{"smiles": "CNCCNCc1ccc2ccccc2n1", "note": "[Compound 9, 1-{2-quinolyl)-2,5-diazahexane]", "Log β": "15.10(3)", "Logarithm of the protonation constant H+L ⇌ HL": "9.68(2)", "Logarithm of the protonation constant HL+H ⇌ H2L": "5.41(2)"}
{"smiles": "CN(C)CCNCc1ccccn1", "note": "[Compound 4, 1-(2-pyridyl)-5-methyl-2,5-diazahexane]", "Log β": "16.88(2)", "Logarithm of the protonation constant H2L+H ⇌ H3L": "2.25(2)", "Logarithm of the protonation constant H+L ⇌ HL": "9.06(1) ^b", "Logarithm of the protonation constant HL+H ⇌ H2L": "5.58(1)"}
{"smiles": "CN(C)CCNCc1ccc2ccccc2n1", "note": "[Compound 7]", "Log β": "14.63 (1)", "Logarithm of the protonation constant H+L ⇌ HL": "9.17(1)", "Logarithm of the protonation constant HL+H ⇌ H2L": "5.45(1)"}
{"smiles": "CN(C)CCNCc1ccnc2ccccc12", "note": "[Compound 8, 1-{4-quinolyl)-5-methyl-2,5-diazahexane]", "Log β": "18.99(2)", "Logarithm of the protonation constant H2L+H ⇌ H3L": "3.32(1)", "Logarithm of the protonation constant H+L ⇌ HL": "10.08(1)", "Logarithm of the protonation constant HL+H ⇌ H2L": "5.59(1)"}
{"smiles": "CNCCNCc1ccncc1", "note": "[Compound 3, 1-{4-pyridyl)-2,5-diazahexane]", "Log β": "18.60(1)", "Logarithm of the protonation constant H2L+H ⇌ H3L": "3.390(6)", "Logarithm of the protonation constant H+L ⇌ HL": "9.503(5)", "Logarithm of the protonation constant HL+H ⇌ H2L": "5.713(5)"}
{"smiles": "CNCCNCc1ccccn1", "note": "[Compound 1, 1-{2-pyridyl}-2,5-diazahexane]", "Log β": "15.25(1)", "Logarithm of the protonation constant H+L ⇌ HL": "9.63(1) ^b", "Logarithm of the protonation constant HL+H ⇌ H2L": "5.62(1)"}
{"smiles": "CN(C)CCNCc1ccncc1", "note": "[Compound 6]", "Log β": "17.22 (1)", "Logarithm of the protonation constant H2L+H ⇌ H3L": "2.956(6)", "Logarithm of the protonation constant H+L ⇌ HL": "8.865(3)", "Logarithm of the protonation constant HL+H ⇌ H2L": "5.407(3)"}
{"tested_on": "FeSOD of promastigote forms of L.donovani", "assay": "In vitro inhibition of FeSOD (NBT reduction)", "type": "biochemical, Leishmania donovani", "conditions": "not given", "experimental": "as §3\nInhibition caused by the novel compounds on FeSOD/ Cu-Zn SOD activity was quantified on the spectrophotometer at 560 nm according to the technique described by [W F. Beyer. I. Fridovich. Anal Biochem. 1987. […]\nBriefly, the cultured parasites as described in Example 1 underwent centrifugation, the pellet was resuspended (0.5 - 0.6 g/ml) in 3 ml of STE buffer (0.25 M. Tris-HCI 25 mM sucrose. 1 M EDTA. pH 7.8) and underwent 3 cycles of sonication from 30 s at 60 V. Then, it was centrifuged at 1500 g for 10 min at 4° C. and the pellet was washed 3 times with ice-cooled STE buffer. […] Protein concentrations were determined by means of the Bradford method (Sigma-Aldrich) using bovine serum albumin as standard. […]"}
{"smiles": "CNCCNCc1cccnc1", "note": "[Compound 2, 1-{3-pyridyl)-2,5-diazahexane]", "Concentration for 50% inhibition (IC50) of FeSOD of L.donovani": "lower than that necessary for the enzyme of human erythrocytes; also recorded: showed ability to inhibit FeSOD; also recorded: low IC50 value"}
{"smiles": "CN(C)CCNCc1ccccn1", "note": "[Compound 4, 1-(2-pyridyl)-5-methyl-2,5-diazahexane]", "Concentration for 50% inhibition (IC50) of FeSOD of L.donovani": "lower than that necessary for the enzyme of human erythrocytes; also recorded: showed ability to inhibit FeSOD"}
